In ChEMBL document CHEMBL3745616, “Identification of a potent inhibitor targeting human lactate dehydrogenase A and its metabolic modulation for cancer cell line” (Bioorg Med Chem Lett, 2016):
Active and inactive are the calls of the source. No cut-off for these calls is given here.

How the values were obtained:
[1] = target: L-lactate dehydrogenase A chain (Homo sapiens, UniProt P00338); assay: Inhibition of human LDHA using pyruvate as substrate assessed as disappearance of NADH preincubated for 10 mins followed by substrate addition every 2.5 secs for 10 mins by fluorescence analysis
MCF7 [2] = assay: Cytotoxicity against human MCF7 cells after 72 hrs by MTT assay; type: functional, cell-based; settings: MCF7, 72 h
MCF7 [3] = assay: Reduction in lactate production in human MCF7 cells at 10 uM after 12 hrs; type: functional, cell-based
MCF7 [4] = assay: Reduction in lactate production in human MCF7 cells at 5 uM after 12 hrs; type: functional, cell-based
MCF7 [5] = assay: Reduction in lactate production in human MCF7 cells at 5 to 10 uM after 12 hrs; type: functional, cell-based
MCF7 [6] = assay: Increase in oxygen consumption rate in human MCF7 cells at 2 to 10 uM after 12 hrs by extracellular flux analysis; type: functional, cell-based
MCF7 [7] = assay: Decrease in extracellular acidfication rate in human MCF7 cells at 2 to 10 uM after 12 hrs by extracellular flux analysis; type: functional, cell-based
MCF7 [8] = assay: Decrease in proton production rate in human MCF7 cells at 2 to 10 uM after 12 hrs by extracellular flux analysis; type: functional, cell-based

| Compound | IC50 [1] [µM] | IC50 (MCF7 [2]) [µM] | Activity (MCF7 [3]) | Activity (MCF7 [4]) | Activity (MCF7 [5]) | Activity (MCF7 [6]) | inhibition (MCF7 [7]) | inhibition (MCF7 [8]) |
| --- | --- | --- | --- | --- | --- | --- | --- | --- |
| CCCC(=O)N(c1ccc2oc(C)c(C(=O)OCC)c2c1)S(=O)(=O)c1ccc(OC)cc1 | 3.5 | > 30 |  |  |  |  |  |  |
| Cn1c(=O)c2c(nc(NCc3ccccc3)n2C[C@@H](O)COc2ccc(Cl)cc2)n(C)c1=O | 2.3 | 3.5 |  |  |  |  |  |  |
| COc1ncc(-c2ccc3c(Nc4cccc(C(=O)O)c4)c(S(N)(=O)=O)cnc3c2)c(OC)n1 | 4.8 | > 30 | Active |  |  |  |  |  |
| Cc1nc(C)c(C(=O)OC[C@H]2CCCO2)c(-c2ccccc2C(F)(F)F)c1C(=O)O | 7.8 | 10.8 |  |  |  |  |  |  |
| Cc1ccccc1OC[C@H](O)Cn1c(NCc2ccccc2)nc2c1c(=O)n(C)c(=O)n2C | 0.25 | 1.54 |  | Active | Active | Active | Active | Active |
